Data published in patent publication US20250214993A1, “AROMATIC RING COMPOUND AND USE THEREOF” (SHANGHAI SHIJIANG BIOTECHNOLOGY CO., LTD, priority 2022, published 2025).
pIC50: −log10 of the molar value.

Test system: Con-NCI-H82 cell
Experiment: Cell viability (Promega CellTiter-Glo, intracellular ATP), IC50 on Con-NCI-H82 cell
Type: cell-based
Settings: Homo sapiens; normal untreated NCI-H82 cell (control)
Description: (§1) The expression of NNMT protein in NCI-H82 cell was overexpressed by inserting the NNMT gene into NCI-H82 cell using a viral vector, and the NNMT protein-overexpressing NCI-H82 cell (ov-NNMT NCI-H82 cell) was obtained. The normal and untreated NCI-H82 cell (Con-NCI-H82 cell) was used as control. The expressing content of NNMT protein in the ov-NNMT NCI-H82 cell and Con-NCI-H82 cell was detected using Western Blot assay (as shown in FIG. 1), it could be seen from FIG. 1 that the NNMT protein was overexpressed in the ov-NNMT NCI-H82 cell compared with the expression level of NNMT protein in the Con-NCI-H82 cell.
(§2) The cell viability was detected using the Promega CellTiter-Glo kit which reflected cell viability by measuring intracellular ATP content. The Con-NCI-H82 cell and ov-NNMT NCI-H82 cell was cultured in 10% fetal bovine serum-containing RPMI1640 medium (+P/S).

Row | SMILES | pIC50
1 | O=C1c2cc(Cl)ccc2CCC1n1ccc2c[n+](Cc3cccc(Cl)c3)ccc21 (centres unmarked) [AB27244] | 7.62
2 | O=C1c2cc(Cl)ccc2CCC1n1ccc2c[n+](Cc3ccc(Cl)cc3)ccc21 (centres unmarked) [AB27245] | 7.06
3 | CCC(c1ccccc1)[n+]1ccc2c(ccn2C2CCc3ccc(Cl)cc3C2=O)c1 (centres unmarked) [AB27246] | 7.74
4 | O=C1c2cc(OC(F)(F)F)ccc2CCC1[n+]1ccc2c(ccn2CC2CC2)c1 (centres unmarked) [AB27247] | 6.39
5 | CCCCCn1ccc2c[n+](C3CCc4ccc(OC(F)(F)F)cc4C3=O)ccc21 (centres unmarked) [AB27249] | 6.65
6 | CCCCCn1ccc2c[n+](C3CCc4ccc(Cl)cc4C3=O)ccc21 (centres unmarked) [AB27250] | 7.29
7 | O=C1c2cc(Cl)ccc2CCC1[n+]1ccc2c(ccn2CC2CC2)c1 (centres unmarked) [AB27252] | 6.01
8 | CCCn1ccc2c[n+](C3CCc4ccc(Cl)cc4C3=O)ccc21 (centres unmarked) [AB27253] | 5.77
9 | O=C1c2sc(Cl)nc2CCC1[n+]1ccc2c(ccn2Cc2ccccc2)c1 (centres unmarked) [AB27254] | 5.44
10 | O=C(Cn1ccc2c[n+](Cc3ccccc3)ccc21)c1cccc(Cl)c1 [AB27258] | 7.85
11 | Cc1cccc(C(=O)Cn2ccc3c[n+](Cc4ccccc4)ccc32)c1 [AB27259] | 7.74
12 | Cc1ccc(C(=O)Cn2ccc3c[n+](Cc4ccccc4)ccc32)cc1 [AB27260] | 7.89
13 | O=C(Cn1ccc2c[n+](Cc3ccccc3)ccc21)c1cccc(C(F)(F)F)c1 [AB27262] | 7.24
14 | O=C(Cn1ccc2c[n+](Cc3ccccc3)ccc21)c1cccc(OC(F)(F)F)c1 [AB27263] | 7.49
15 | O=C(Cn1ccc2c[n+](Cc3ccccc3)ccc21)c1ccc(C(F)(F)F)cc1 [AB27264] | 6.57
16 | O=C(Cn1ccc2c[n+](Cc3ccccc3)ccc21)c1ccc(OC(F)(F)F)cc1 [AB27265] | 6.91
17 | Cc1cn(CC(=O)c2cccc(Cl)c2)c2cc[n+](Cc3ccccc3)cc12 [AB27266] | 7.05

Row | SMILES | pIC50
18 | Cc1cccc(C(=O)Cn2cc(C)c3c[n+](Cc4ccccc4)ccc32)c1 [AB27267] | 6.95
19 | Cc1ccc(C(=O)Cn2cc(C)c3c[n+](Cc4ccccc4)ccc32)cc1 [AB27268] | 6.98
20 | O=C(Cn1cc(Cl)c2c[n+](Cc3ccccc3)ccc21)c1cccc(Cl)c1 [AB27269] | 6.63
21 | Cc1cn(CC(=O)c2cccc(Cl)c2)c2cc[n+](C(C)c3ccccc3)cc12 (centres unmarked) [AB27270] | 6.40
22 | O=C1c2cc(Cl)ccc2CCC1n1cc(Cl)c2c[n+](Cc3ccccc3)ccc21 (centres unmarked) [AB27271] | 7.47
23 | Cc1ccc(C(=O)C[n+]2ccc(NCc3ccccc3)c3ccccc32)cc1 [AB27272] | 6.11
24 | Cc1cc(NCc2ccccc2)cc[n+]1CC(=O)c1ccc(C(F)(F)F)cc1 [AB27273] | 6.73
25 | Cc1cc(NCc2ccccc2)cc[n+]1CC(=O)c1ccc(OC(F)(F)F)cc1 [AB27274] | 6.18
26 | Cc1cc(NCc2ccccc2)cc[n+]1CC(=O)c1cccc(C(F)(F)F)c1 [AB27275] | 7.20
27 | Cc1cc(NCc2ccccc2)cc[n+]1CC(=O)c1cccc(OC(F)(F)F)c1 [AB27276] | 7.04
28 | Cc1ccc(C(=O)C[n+]2ccc(NCc3ccccc3)c(C)c2C)cc1 [AB27278] | 7.68
29 | Cc1ccc(C(=O)CN(C)c2cc[n+](Cc3ccccc3)cc2)cc1 [AB27285] | 6.44
30 | Cc1ccc2c(c1)C(=O)C([n+]1ccc3cn(Cc4ccccc4)cc3c1)CC2 (centres unmarked) [AB27287] | 6.70
31 | O=C1c2cc(C(F)(F)F)ccc2CCC1[n+]1ccc2cn(Cc3ccccc3)cc2c1 (centres unmarked) [AB27288] | 6.46
32 | O=C1c2cc(OC(F)(F)F)ccc2CCC1[n+]1ccc2cn(Cc3ccccc3)cc2c1 (centres unmarked) [AB27289] | 6.55
33 | O=C1c2ccc(C(F)(F)F)cc2CCC1n1ccc2c[n+](Cc3ccccc3)ccc21 (centres unmarked) [AB27290] | 7.04
34 | O=C1c2ccc(OC(F)(F)F)cc2CCC1n1ccc2c[n+](Cc3ccccc3)ccc21 (centres unmarked) [AB27291] | 7.10

Test system: ov-NNMT NCI-H82 cell
Experiment: Cell viability (Promega CellTiter-Glo, intracellular ATP), IC50 on NNMT-overexpressing NCI-H82 cell
Type: cell-based
Settings: Homo sapiens; NCI-H82 cell overexpressing NNMT protein
Description: as §1, §2

Row | pIC50 | SMILES
35 | 6.47 | O=C1c2cc(Cl)ccc2CCC1n1ccc2c[n+](Cc3cccc(Cl)c3)ccc21 (centres unmarked) [AB27244]
36 | 6.06 | O=C1c2cc(Cl)ccc2CCC1n1ccc2c[n+](Cc3ccc(Cl)cc3)ccc21 (centres unmarked) [AB27245]
37 | 6.51 | CCC(c1ccccc1)[n+]1ccc2c(ccn2C2CCc3ccc(Cl)cc3C2=O)c1 (centres unmarked) [AB27246]
38 | 5.78 | O=C1c2cc(OC(F)(F)F)ccc2CCC1[n+]1ccc2c(ccn2CC2CC2)c1 (centres unmarked) [AB27247]
39 | 5.82 | CCCCCn1ccc2c[n+](C3CCc4ccc(OC(F)(F)F)cc4C3=O)ccc21 (centres unmarked) [AB27249]
40 | 6.16 | CCCCCn1ccc2c[n+](C3CCc4ccc(Cl)cc4C3=O)ccc21 (centres unmarked) [AB27250]
41 | 5.43 | O=C1c2cc(Cl)ccc2CCC1[n+]1ccc2c(ccn2CC2CC2)c1 (centres unmarked) [AB27252]
42 | 5.26 | CCCn1ccc2c[n+](C3CCc4ccc(Cl)cc4C3=O)ccc21 (centres unmarked) [AB27253]
43 | 4.90 | O=C1c2sc(Cl)nc2CCC1[n+]1ccc2c(ccn2Cc2ccccc2)c1 (centres unmarked) [AB27254]
44 | 6.56 | O=C(Cn1ccc2c[n+](Cc3ccccc3)ccc21)c1cccc(Cl)c1 [AB27258]
45 | 6.63 | Cc1cccc(C(=O)Cn2ccc3c[n+](Cc4ccccc4)ccc32)c1 [AB27259]
46 | 6.61 | Cc1ccc(C(=O)Cn2ccc3c[n+](Cc4ccccc4)ccc32)cc1 [AB27260]
47 | 6.00 | O=C(Cn1ccc2c[n+](Cc3ccccc3)ccc21)c1cccc(C(F)(F)F)c1 [AB27262]
48 | 6.49 | O=C(Cn1ccc2c[n+](Cc3ccccc3)ccc21)c1cccc(OC(F)(F)F)c1 [AB27263]
49 | 5.65 | O=C(Cn1ccc2c[n+](Cc3ccccc3)ccc21)c1ccc(C(F)(F)F)cc1 [AB27264]
50 | 6.06 | O=C(Cn1ccc2c[n+](Cc3ccccc3)ccc21)c1ccc(OC(F)(F)F)cc1 [AB27265]
51 | 6.12 | Cc1cn(CC(=O)c2cccc(Cl)c2)c2cc[n+](Cc3ccccc3)cc12 [AB27266]

Row | pIC50 | SMILES
52 | 6.04 | Cc1cccc(C(=O)Cn2cc(C)c3c[n+](Cc4ccccc4)ccc32)c1 [AB27267]
53 | 5.88 | Cc1ccc(C(=O)Cn2cc(C)c3c[n+](Cc4ccccc4)ccc32)cc1 [AB27268]
54 | 5.66 | O=C(Cn1cc(Cl)c2c[n+](Cc3ccccc3)ccc21)c1cccc(Cl)c1 [AB27269]
55 | 5.43 | Cc1cn(CC(=O)c2cccc(Cl)c2)c2cc[n+](C(C)c3ccccc3)cc12 (centres unmarked) [AB27270]
56 | 6.25 | O=C1c2cc(Cl)ccc2CCC1n1cc(Cl)c2c[n+](Cc3ccccc3)ccc21 (centres unmarked) [AB27271]
57 | 5.26 | Cc1ccc(C(=O)C[n+]2ccc(NCc3ccccc3)c3ccccc32)cc1 [AB27272]
58 | 5.81 | Cc1cc(NCc2ccccc2)cc[n+]1CC(=O)c1ccc(C(F)(F)F)cc1 [AB27273]
59 | 5.34 | Cc1cc(NCc2ccccc2)cc[n+]1CC(=O)c1ccc(OC(F)(F)F)cc1 [AB27274]
60 | 6.05 | Cc1cc(NCc2ccccc2)cc[n+]1CC(=O)c1cccc(C(F)(F)F)c1 [AB27275]
61 | 5.95 | Cc1cc(NCc2ccccc2)cc[n+]1CC(=O)c1cccc(OC(F)(F)F)c1 [AB27276]
62 | 6.55 | Cc1ccc(C(=O)C[n+]2ccc(NCc3ccccc3)c(C)c2C)cc1 [AB27278]
63 | 5.87 | Cc1ccc(C(=O)CN(C)c2cc[n+](Cc3ccccc3)cc2)cc1 [AB27285]
64 | 5.60 | Cc1ccc2c(c1)C(=O)C([n+]1ccc3cn(Cc4ccccc4)cc3c1)CC2 (centres unmarked) [AB27287]
65 | 5.60 | O=C1c2cc(C(F)(F)F)ccc2CCC1[n+]1ccc2cn(Cc3ccccc3)cc2c1 (centres unmarked) [AB27288]
66 | 5.69 | O=C1c2cc(OC(F)(F)F)ccc2CCC1[n+]1ccc2cn(Cc3ccccc3)cc2c1 (centres unmarked) [AB27289]
67 | 6.03 | O=C1c2ccc(C(F)(F)F)cc2CCC1n1ccc2c[n+](Cc3ccccc3)ccc21 (centres unmarked) [AB27290]
68 | 5.99 | O=C1c2ccc(OC(F)(F)F)cc2CCC1n1ccc2c[n+](Cc3ccccc3)ccc21 (centres unmarked) [AB27291]
